{"source": "patent US6355785B1", "about": "“Guanosine-rich oligonucleotide integrase inhibitors” (Aronex Pharmaceuticals, Inc., priority 1993, dated 2002)", "key": {"[1]": {"target": "T1, recombinant HIV-1 integrase (wild-type) (Human immunodeficiency virus type 1 group M subtype B, UniProt P12497)", "assay": "HIV-1 integrase 3′-processing and strand transfer assays", "type": "biochemical", "design": "Purified recombinant HIV-1 integrase enzyme (wild-type) was a generous gift from Dr. R. Craigie; purchased gift of Dr. R. Craigie, Laboratory of Molecular Biology, NIDDK (not bought)"}, "[2]": {"tested_on": "HIV-1 clinical isolates", "assay": "microbe, parasite or virus in culture", "type": "cell-based"}, "[3]": {"tested_on": "HIV-1 laboratory isolates", "assay": "HIV-1 infection of PBMCs (p24)", "type": "cell-based", "conditions": "read-out: IC50 viral production"}, "[4]": {"tested_on": "HIV-1DV", "assay": "Analysis of HIV-1 RNA and DNA in single cycle assays, SUP T1", "type": "cell-based"}, "[5]": {"target": "T1, recombinant HIV-1 integrase (wild-type)", "conditions": "previously reported by Ojwang et al., cited from earlier work"}, "[6]": {"target": "T2, HIV-1 integrase deletion mutant IN1-212 (Human immunodeficiency virus type 1 group M subtype B, UniProt P12497)", "T2 construct": "purchased gift of Drs; T. Jenkins and R. Craigie, NIDDK, NIH (not bought)", "assay": "Disintegration assay, IN1-212", "type": "biochemical"}, "[7]": {"target": "T3, HIV-1 integrase catalytic core IN50-212 (Human immunodeficiency virus type 1 group M subtype B, UniProt P12497)", "T3 construct": "purchased gift of Drs; T. Jenkins and R. Craigie, NIDDK, NIH (not bought)", "assay": "Disintegration assay, IN50-212", "type": "biochemical", "conditions": "IN50-212, 3 μM"}, "[8]": {"tested_on": "HIV-1RF", "assay": "HeLa-CD4-LTR-β-galactosidase cell virus infection assay", "type": "cell-based"}, "[9]": {"assay": "Oligomer folding by circular dichroism", "conditions": "KCl, 25° C., 20 mM Li3PO4"}, "[10]": {"conditions": "3′-processing, read-out: Anti-Integrase Assay IC50 3′-proc"}, "[11]": {"conditions": "strand transfer, read-out: Anti-Integrase Assay IC50 strand tran."}}, "note": "Like-named read-outs stand apart in the source and are kept apart here.", "data": [{"molecule": "Cc1cn([C@H]2C[C@H](N=[N+]=[N-])[C@@H](CO)O2)c(=O)[nH]c1=O", "note": "[AZT, 3′-azido-3′-deoxythymidine]", "values": [{"measurement": "IC50", "setting": "[1]; [10]", "result": "> 1000", "unit": "nM"}, {"measurement": "IC50", "setting": "[1]; [11]", "result": "> 1000", "unit": "nM"}, {"measurement": "IC50", "setting": "[2]; Human immunodeficiency virus 1, read-out: IC50 values over the clinical isolates tested in PBLs, range over isolates", "result": "10 to 1650", "unit": "nM"}, {"measurement": "IC50", "setting": "[2]; Human immunodeficiency virus 1, read-out: IC50 viral production, PBLs, clinical isolate 942716", "result": "2 ± 3", "unit": "nM"}, {"measurement": "IC50", "setting": "[2]; Human immunodeficiency virus 1, read-out: IC50 viral production, PBLs, clinical isolate 942751", "result": "28 ± 2.5", "unit": "nM"}, {"measurement": "IC50", "setting": "[2]; Human immunodeficiency virus 1, read-out: IC50 viral production, PBLs, clinical isolate BAKI (SI)", "result": "20 ± 6", "unit": "nM"}, {"measurement": "IC50", "setting": "[2]; Human immunodeficiency virus 1, read-out: IC50 viral production, PBLs, clinical isolate BLCH (NSI)", "result": "22 ± 0.8", "unit": "nM"}, {"measurement": "IC50", "setting": "[2]; Human immunodeficiency virus 1, read-out: IC50 viral production, PBLs, clinical isolate JOGA (NSI)", "result": "> 1000", "unit": "nM"}, {"measurement": "IC50", "setting": "[2]; Human immunodeficiency virus 1, read-out: IC50 viral production, PBLs, clinical isolate N. Amer. #1", "result": "10 ± 4", "unit": "nM"}, {"measurement": "IC50", "setting": "[2]; Human immunodeficiency virus 1, read-out: IC50 viral production, PBLs, clinical isolate N. Amer. #2", "result": "1650 ± 7", "unit": "nM"}, {"measurement": "IC50", "setting": "[2]; Human immunodeficiency virus 1, read-out: IC50 viral production, PBLs, clinical isolate ROJO (SI)", "result": "52 ± 0.4", "unit": "nM"}, {"measurement": "IC50", "setting": "[2]; Human immunodeficiency virus 1, read-out: IC50 viral production, PBLs, clinical isolate S. E. Asia", "result": "60 ± 5", "unit": "nM"}, {"measurement": "IC50", "setting": "[2]; Human immunodeficiency virus 1, read-out: IC50 viral production, PBLs, clinical isolate VIHU (NSI)", "result": "36 ± 0.7", "unit": "nM"}, {"measurement": "IC50", "setting": "[2]; Human immunodeficiency virus 1, read-out: IC50 viral production, PBLs, clinical isolate WEJO (SI)", "result": "17 ± 0.1", "unit": "nM"}, {"measurement": "IC50", "setting": "[2]; Human immunodeficiency virus 1, read-out: IC50 viral production, PBLs, clinical isolate WOME (SI)", "result": "25 ± 0.3", "unit": "nM"}, {"measurement": "IC50", "setting": "[3]; Human immunodeficiency virus 1, IIIB, PBMC, HIV-1 IIIB", "result": "3 ± 0.2", "unit": "nM"}, {"measurement": "IC50", "setting": "[3]; Human immunodeficiency virus 1, PBMC, HIV-1 JRCSF", "result": "2.5 ± 1", "unit": "nM"}, {"measurement": "IC50", "setting": "[3]; Human immunodeficiency virus 1, PBMC, HIV-1 MN", "result": "53 ± 1", "unit": "nM"}, {"measurement": "IC50", "setting": "[3]; Human immunodeficiency virus 1, PBMC, HIV-1 RF", "result": "272 ± 3", "unit": "nM"}, {"measurement": "viral DNA synthesis (PCR)", "setting": "[4]; 36 hr post-infection", "result": "marked decrease in viral DNA synthesis"}, {"measurement": "HIV-1 specific transcript (RT-PCR)", "setting": "[4]; drug added at zero hours", "result": "viral mRNA was still being produced"}]}, {"molecule": "5′-gtggtgggtgggtgggt-3′ [T30177] (GTGGTGGGTGGGTGGGT; phosphorothioate termini, further chemistry not given here) [pPT version of parent compound I100-15, 17 mer]", "values": [{"measurement": "IC50", "setting": "[5]; read-out: IC50 3′-PROC", "result": 79, "unit": "nM"}, {"measurement": "IC50", "setting": "[5]; read-out: IC50 STR · TRA", "result": 49, "unit": "nM"}, {"measurement": "increase in potency (3′-processing) with magnesium instead of manganese", "setting": "[1]", "result": "four to five-fold"}, {"measurement": "IC50", "setting": "[1]; [10]", "result": 92, "unit": "nM"}, {"measurement": "IC50", "setting": "[1]; HIV-1 integrase, read-out: IC50 3′-processing", "result": 55, "unit": "nM"}, {"measurement": "IC50", "setting": "[1]; read-out: Enzyme IC50 3-′process", "result": 49, "unit": "nM"}, {"measurement": "IC50", "setting": "[1]; read-out: Enzyme IC50 Stran Trans", "result": 79, "unit": "nM"}, {"measurement": "IC50", "setting": "[1]; [11]", "result": 46, "unit": "nM"}, {"measurement": "IC50", "setting": "[2]; PBLs, clinical isolate 942716, read-out: IC50 viral production", "result": "860 ± 6", "unit": "nM"}, {"measurement": "IC50", "setting": "[2]; PBLs, clinical isolate 942751, read-out: IC50 viral production", "result": "380 ± 3", "unit": "nM"}, {"measurement": "IC50", "setting": "[2]; PBLs, clinical isolate BAKI (SI), read-out: IC50 viral production", "result": "230 ± 5", "unit": "nM"}, {"measurement": "IC50", "setting": "[2]; PBLs, clinical isolate BLCH (NSI), read-out: IC50 viral production", "result": "3080 ± 6", "unit": "nM"}, {"measurement": "IC50", "setting": "[2]; PBLs, clinical isolate JOGA (NSI), read-out: IC50 viral production", "result": "330 ± 4", "unit": "nM"}, {"measurement": "IC50", "setting": "[2]; PBLs, clinical isolate N. Amer. #1, read-out: IC50 viral production", "result": "250 ± 3", "unit": "nM"}, {"measurement": "IC50", "setting": "[2]; PBLs, clinical isolate N. Amer. #2, read-out: IC50 viral production", "result": "2920 ± 5", "unit": "nM"}, {"measurement": "IC50", "setting": "[2]; PBLs, clinical isolate ROJO (SI), read-out: IC50 viral production", "result": "3900 ± 20", "unit": "nM"}, {"measurement": "IC50", "setting": "[2]; PBLs, clinical isolate S. E. Asia, read-out: IC50 viral production", "result": "580 ± 3", "unit": "nM"}, {"measurement": "IC50", "setting": "[2]; PBLs, clinical isolate VIHU (NSI), read-out: IC50 viral production", "result": "1300 ± 20", "unit": "nM"}, {"measurement": "IC50", "setting": "[2]; PBLs, clinical isolate WEJO (SI), read-out: IC50 viral production", "result": "300 ± 10", "unit": "nM"}, {"measurement": "IC50", "setting": "[2]; PBLs, clinical isolate WOME (SI), read-out: IC50 viral production", "result": "710 ± 2", "unit": "nM"}]}, {"molecule": "5′-gtggtgggtgggtgggt-3′ (GTGGTGGGTGGGTGGGT; phosphorothioate termini, further chemistry not given here) [T30177]", "values": [{"measurement": "IC50", "setting": "[6]", "result": 600, "unit": "nM"}, {"measurement": "IC50", "setting": "[3]; HIV-1 IIIB", "result": 120, "unit": "nM"}, {"measurement": "IC50", "setting": "[3]; HIV-1 JRCSF", "result": "280 ± 40", "unit": "nM"}, {"measurement": "IC50", "setting": "[3]; HIV-1 MN", "result": "1350 ± 100", "unit": "nM"}, {"measurement": "IC50", "setting": "[3]; HIV-1 RF", "result": "750 ± 130", "unit": "nM"}, {"measurement": "inhibition of disintegration", "setting": "[7]", "result": "≤ 30", "unit": "%"}, {"measurement": "IC50", "setting": "[8]; HIV-1RF, read-out: IC50 β-galactosidase production, virus infection assay", "result": 9, "unit": "nM"}, {"measurement": "direct effect on β-galactosidase enzyme activity", "setting": "[8]; up to 10 μM, control experiment", "result": "no observable direct effect"}, {"measurement": "midpoint of K+ induced folding transition (CD, 264 nm)", "setting": "[9]", "result": 0.15, "unit": "mM"}]}]}
